According to ChEMBL document CHEMBL1121878, “Synthesis of seleno- and thioguanine-platinum(II) complexes and their antitumor activity in mice” (1981):
Each block holds one compound with its values, some of them ahead of it.

How the values were obtained:
L1210 [1] = assay: (§1) Median survival time at a compound dose of 100 mg/kg, in mice bearing L1210 cells on days 1 and 5; assay type: functional, Mus musculus
L1210 [2] = assay: Median survival time at a compound dose of 50 mg/kg, in mice bearing L1210 cells on days 1 and 5; assay type: functional, Mus musculus
L1210 [3] = assay: Median survival time when no dose was administered in mice bearing L1210 cells on days 1 and 5; assay type: functional, Mus musculus
L1210 [4] = assay: (§2) Ratio of the median survival time (treated(T) versus control(C)) at a dose of 100 mg/kg, on days 1 and 5; assay type: functional, Mus musculus
[5] = The number of mice survived to that of total at a dose of 50 mg/kg on 30th day; 1/5; assay type: functional
L1210 [6] = assay: (§3) Ratio of the median survival time (treated(T) versus control(C)) at a dose of 50 mg/kg, on days 1 and 5; assay type: functional, Mus musculus
[7] = The number of mice survived to that of total at a dose of 100 mg/kg on 30th day; 3/5; assay type: functional
L1210 [8] = assay: In vitro inhibitory concentration required for 50% inhibition of L1210 cell growth; assay type: functional; settings: Mus musculus, read-out: ID50 (the source's name)
[9] = The number of mice survived to that of total when no compound dose was given on 30th day; assay type: functional
L1210 [10] = assay: Effect dose of 50 mg/kg on day 3, before L1210 cell transplantation in mice; assay type: functional, Mus musculus
L1210 [11] = assay: Median survival time at a compound dose of 400 mg/kg, in mice bearing L1210 cells on days 1 and 5; assay type: functional, organism-based; set-up: dose 400 mg/kg; settings: Mus musculus
L1210 [12] = assay: Ratio of the median survival time (treated(T) versus control(C)) at a dose of 400 mg/kg, on days 1 and 5; assay type: functional, organism-based; set-up: dose 400 mg/kg; settings: Mus musculus
L1210 [13] = assay: Ratio of the median survival time (treated(T) versus control(C)) at a dose of 50x2 mg/kgxdays, on days 1 and 5; assay type: functional, organism-based; settings: Mus musculus
L1210 [14] = assay: as §1; assay type: functional; settings: Mus musculus
[15] = The number of mice survived to that of total at a dose of 400 mg/kg on 30th day; 0/5; assay type: functional, organism-based; set-up: dose 400 mg/kg
[16] = The number of mice survived to that of total at a dose of 800 mg/kg on 30th day; 0/5; assay type: functional, organism-based; set-up: dose 800 mg/kg
[17] = The number of mice survived to that of total at a dose of 50 mg/kg on 30th day; 0/5; assay type: functional
L1210 [18] = assay: Median survival time at a compound dose of 800 mg/kg (administered on days 1 & 5) in mice bearing L1210 cells; assay type: functional, organism-based; set-up: dose 800 mg/kg; settings: Mus musculus
[19] = The number of mice survived to that of total at a dose of 100 mg/kg on 30th day; 0/5; assay type: functional, organism-based; set-up: dose 100 mg/kg
L1210 [20] = assay: Ratio of the median survival time (treated(T) versus control(C)) at a dose of 800 mg/kg, on days 1 and 5; assay type: functional, organism-based; set-up: dose 800 mg/kg; settings: Mus musculus
L1210 [21] = assay: Ratio of the median survival time (treated(T) versus control(C)) at a dose of 100x2 mg/kgxdays, on days 1 and 5; assay type: functional, organism-based; settings: Mus musculus
Mus musculus [22] = assay: as §3; assay type: functional
[23] = The number of mice survived to that of total at a dose of 100 mg/kg on 30th day; assay type: functional
Mus musculus [24] = assay: as §2; assay type: functional
[25] = The number of mice survived to that of total at a dose of 50 mg/Kg on 30th day; assay type: functional
L1210 [26] = assay: Median survival time at a compound dose of 25 mg/Kg, in mice bearing L1210 cells on days 1 and 5; assay type: functional, Mus musculus
L1210 [27] = assay: Median survival time at a compound dose of 200 mg/kg, in mice bearing L1210 cells on days 1 and 5; Toxic; assay type: functional, organism-based; set-up: dose 200 mg/kg; settings: Mus musculus
[28] = The number of mice survived to that of total at a dose of 25 mg/Kg on 30th day: 4/5; assay type: functional
Mus musculus [29] = assay: Ratio of the median survival time (treated(T) versus control(C)) at a dose of 25 mg/Kg on days 1 and 5; assay type: functional
[30] = The number of mice survived to that of total at a dose of 75 mg/kg on 30th day; 0/5; assay type: functional
L1210 [31] = assay: Ratio of the median survival time (treated(T) versus control(C)) at a dose of 75 mg/kg on days 1 and 5; assay type: functional, Mus musculus
[32] = The number of mice survived to that of total at a dose of 25 mg/kg on 30th day; 0/5; assay type: functional
L1210 [33] = assay: Ratio of the median survival time (treated(T) versus control(C)) at a dose of 25 mg/kg, on days 1 and 5; assay type: functional, Mus musculus
L1210 [34] = assay: Median survival time at a compound dose of 25 mg/kg, in mice bearing L1210 cells on days 1 and 5; assay type: functional, Mus musculus
L1210 [35] = assay: Median survival time at a compound dose of 75 mg/kg, in mice bearing L1210 cells on days 1 and 5; assay type: functional, Mus musculus

Compound: Nc1nc([SeH])c2[nH]cnc2n1
Median survival time (L1210 [1]): >30 days | Median survival time (L1210 [2]): 18 days | Median survival time (L1210 [3]): 9 days | T/C (L1210 [4]): >300% | Ratio [5]: 1 | T/C (L1210 [6]): 200% | Ratio [7]: 3 | IC50 (L1210 [8]): 0.00416 µM | Ratio [9]: 0 | T/C (L1210 [10]): 100%

Compound: 2-(2-Amino-6-selanyl-purin-9-yl)-5-hydroxymethyl-tetrahydro-furan-3,4-diol platinum complex
Median survival time (L1210 [11]): 12 days | T/C (L1210 [12]): 133% | Median survival time (L1210 [2]; Mus musculus): 12 days | T/C (L1210 [13]): 133% | Median survival time (L1210 [14]): 11 days | Median survival time (L1210 [3]; Mus musculus): 9 days | Ratio [15]: 0 | Ratio [16]: 0 | Ratio [17]: 0 | Ratio [9]: 0 | Median survival time (L1210 [18]): 14 days | Ratio [19]: 0 | T/C (L1210 [20]): 156% | T/C (L1210 [21]): 111%

Compound: Nc1nc2[nH]cnc2c(=S)[nH]1 [THIOGUANINE]
Median survival time (L1210 [1]): 10 days | T/C (Mus musculus [22]): 120% | Ratio [23]: 0 | Median survival time (L1210 [2]): 12 days | Median survival time (L1210 [3]): 10 days | T/C (Mus musculus [24]): 100% | Ratio [25]: 0 | Median survival time (L1210 [26]): >30 days | Median survival time (L1210 [27]): Toxic | Ratio [28]: 4 | Ratio [9]: 0 | T/C (Mus musculus [29]): >300% | T/C (L1210 [10]): 111%

Compound: Nc1nc([SeH])c2ncn(C3O[C@H](CO)[C@H](O)[C@@H]3O)c2n1 (stereo partly drawn)
Median survival time (L1210 [2]): 13 days | Ratio [30]: 0 | Median survival time (L1210 [3]): 9 days | T/C (L1210 [31]): 144.4% | T/C (L1210 [6]): 144.4% | Ratio [32]: 0 | T/C (L1210 [33]): 166.7% | Median survival time (L1210 [34]): 15 days | Ratio [17]: 0 | Median survival time (L1210 [35]): 13 days

IC50 (L1210 [8]): 10.6 µM
Compound: O=c1[nH]c(=S)c2nc[nH]c2[nH]1
